Series [1] is described as follows: Stability of linker-modified sfGFP in buffer comprising GSH (thiol exchange, mass spectrometry). It counts as physicochemical. To be noted: 37° C., different times. As for the experimental part:
GSH (0.8 μL, 100 mM) and PBS (20 μL, pH=8.0, 50 mM) were added to a solution of GFP-Linker (20 μL, 40 μM, in PBS) at 37° C. for 48 h. (FIG. 20)
The stability of a sfGFP modified PhESF as a linker was verified, using the linker 5 and 4 with higher reactivity as controls. After sfGFP had been modified, it was added to the buffer comprising GSH, and was placed at 37° C. for different time, and a mass spectrometry was performed.

The test system of series [2] is sfGFP-TEV. Description: Modification of sfGFP-TEV by derivatives of the reagent 1. The settings on record: 2 h. As to the method: When the benzene ring of the Reagent 1 was modified with different substituents (Michael acceptor 1-1 to 1-4), the difference of different substituents on the addition reaction (for example, the addition activity) was investigated (Table 5). Michael acceptor 1-1 to 1-4 were reacted with sfGFP-TEV.
MA 2 or MA 2 analogues (i.e. Compounds 1a, 1a-1, 1b, 1b-1) (1 μL, 20 mM in DMSO) and PBS (15 μL, pH=7.4, 50 mM) were added to a solution of GFP-TEV (4 μL, 250 μM in HEPES buffer). After incubation at 37° C. for 2 h, the solution was desalted to give the product before LC-MS analysis.

With `CN1C(=O)C=CC1=O` [linker 5, reference compound], in series [1], the thiol exchange entry is “obviously undergo thiol exchange”.

With `O=S(=O)(F)/C=C/c1ccccc1` [Michael acceptor 1], the thiol exchange result in series [1] is “did not have a thiol exchange”. For the same compound, in series [2], the Addition number stood at 2 and the “Conv. (%)” value is on record as greater than 99%.

(Values after patent publication US20240261425A1, “CONJUGATE AND THE PREPARING METHOD AND USE THEREOF” (Nanjing University, priority 2021, published 2024).)
